Values after ≈ are worked out from the molar mass of the structure shown. Like-named read-outs stand apart in the source and are kept apart here. Bridge positions count the residues as written; N and C are the ends. Square brackets hold non-standard residues; d marks the D form. Peptide text beside a SMILES is read from it. * marks the point of attachment. X1 = CC[C@H](C)CCCCC(=O)*; Dab = NCC[C@H](N)C(=O)O
Tests used:
[1] = test system: human skin fibroblast cells (HeKa)
[2] = test system: normal lung (MRC-5) cells
[3] = design: method as in PMID 25808204; settings: cited from earlier work
[4] = test system: K. pneumoniae (ATCC 700603); assay: microbe, parasite or virus in culture; settings: Klebsiella pneumoniae, ATCC700603, read-out: MIC K. pneumoniae (ATCC 700603)
S. aureus (ATCC 29213) = assay: microbe, parasite or virus in culture; settings: Staphylococcus aureus, ATCC29213, read-out: MIC S. aureus (ATCC 29213)
P. aeruginosa (1188712) = assay: microbe, parasite or virus in culture; settings: Pseudomonas aeruginosa, read-out: MIC P. aeruginosa (1188712)
K. pneumoniae (1188718) = assay: microbe, parasite or virus in culture; settings: Klebsiella pneumoniae, read-out: MIC K. pneumoniae (1188718)
S. aureus (1193193) = assay: microbe, parasite or virus in culture; settings: Staphylococcus aureus, read-out: MIC S. aureus (1193193)
[5] = test system: P. aeruginosa (ATCC 27853); assay: microbe, parasite or virus in culture; settings: Pseudomonas aeruginosa, ATCC27853, read-out: MIC P. aeruginosa (ATCC 27853)
E. coli (1191008) = assay: microbe, parasite or virus in culture; settings: Escherichia coli, read-out: MIC E. coli (1191008)
E. coli (ATCC 25922) [6] = assay: microbe, parasite or virus in culture; settings: Escherichia coli, ATCC25922, read-out: MIC E. coli (ATCC 25922)
MRSA (ATCC BAA-1556) [7] = assay: microbe, parasite or virus in culture; settings: Staphylococcus aureus, ATCCBAA1556|MRSA, 24 h, read-out: MBC MRSA (ATCC BAA-1556)
E. coli (ATCC 25922) [8] = settings: antibiotic alone or physical mixture with peptide (1:1 w/w)
E. coli (ATCC 25922) [9] = assay: microbe, parasite or virus in culture; settings: Escherichia coli, ATCC25922, 24 h, read-out: MBC E. coli (ATCC 25922)
[10] = test system: S. aureus (ATCC BAA-1556); assay: Synergistic checkerboard assay; assay type: cell-based; settings: Staphylococcus aureus
[11] = test system: P. aeruginosa (ATCC 27883); assay: microbe, parasite or virus in culture; settings: Pseudomonas aeruginosa, ATCC27883, 24 h, read-out: MBC P. aeruginosa (ATCC 27883)
[12] = test system: K. pneumoniae (ATCC BAA-1705); assay: microbe, parasite or virus in culture; settings: Klebsiella pneumoniae, ATCCBAA1705, 24 h, read-out: MBC K. pneumoniae (ATCC BAA-1705)
MRSA (ATCC BAA-1556) [13] = settings: antibiotic alone or physical mixture with peptide (1:1 w/w)
[14] = test system: S. aureus (ATCC 29213), MRSA (ATCC BAA-1556), E. coli (ATCC 25922), E. coli (ATCC BAA-2452); assay: Serial passage resistance development study; assay type: cell-based, S. aureus and E. coli; settings: 18 repeated passages
E. coli (ATCC 25922) [15] = assay: Synergistic checkerboard assay; assay type: cell-based; settings: Escherichia coli
[16] = test system: K. pneumoniae (ATCC BAA-1705); settings: antibiotic alone or physical mixture with peptide (1:1 w/w)
[17] = test system: P. aeruginosa (ATCC 27883); settings: antibiotic alone or physical mixture with peptide (1:1 w/w)
E. faecium (ATCC 27270) = assay: microbe, parasite or virus in culture; assay type: cell-based; settings: Enterococcus faecium, ATCC27270; Gram-positive
Procedure: (§1) Daptomycin and polymyxin B were selected as positive controls against Gram-positive and Gram-negative bacteria, respectively.
(§2) All experiments were conducted in triplicate.

E. faecalis (ATCC 29212) = assay: microbe, parasite or virus in culture; assay type: cell-based; settings: Enterococcus faecalis, ATCC29212; Gram-positive
Procedure: as §1, §2

[18] = test system: Bacillus subtilis (ATCC-6633); assay: microbe, parasite or virus in culture; assay type: cell-based; settings: ATCC6633, Gram-positive
Procedure: as §1, §2

[19] = test system: S. pneumonia (ATCC 51938); assay: microbe, parasite or virus in culture; assay type: cell-based; settings: Streptococcus pneumoniae, ATCC51938; Gram-positive; penicillin-, clindamycin-, cotrimoxazole-, erythromycin-resistant
Procedure: as §1, §2

E. faecalis (ATCC 51575) = assay: microbe, parasite or virus in culture; assay type: cell-based; settings: Enterococcus faecalis, ATCC51575; Gram-positive; gentamicin-, streptomycin-, vancomycin-resistant
Procedure: as §1, §2

[20] = test system: S. pneumonia (ATCC 49619); assay: microbe, parasite or virus in culture; assay type: cell-based; settings: Streptococcus pneumoniae, ATCC49619; Gram-positive
Procedure: as §1, §2

[21] = Calcein dye leakage assay; settings: 50 μg/mL, 100 min
[22] = test system: P. aeruginosa (ATCC 27883); assay: Synergistic checkerboard assay; assay type: cell-based; settings: Pseudomonas aeruginosa
[23] = test system: K. pneumoniae (ATCC BAA-1705); assay: Synergistic checkerboard assay; settings: Klebsiella pneumoniae, ATCCBAA1705, read-out: MIC antibiotic alone
[24] = Calcein dye leakage assay; settings: 50 μg/mL, 100 min; remark: listed apart in the source
E. coli (ATCC 25922) [25] = assay: microbe, parasite or virus in culture; settings: Escherichia coli, ATCC25922, read-out: MIC E. coli (ATCC 25922); remark: listed apart in the source
[26] = test system: P. aeruginosa (ATCC 27883); assay: microbe, parasite or virus in culture; settings: Pseudomonas aeruginosa, ATCC27883, read-out: MIC P. aeruginosa (ATCC 27883)
MRSA (ATCC BAA-1556) [27] = assay: microbe, parasite or virus in culture; settings: Staphylococcus aureus
[28] = test system: P. aeruginosa (ATCC BAA-1744); assay: microbe, parasite or virus in culture; assay type: cell-based; settings: Pseudomonas aeruginosa, ATCCBAA1744, read-out: MIC P. aeruginosa (ATCC BAA-1744)
Procedure: as §1, §2

[29] = test system: K. pneumoniae (ATCC 13883); assay: microbe, parasite or virus in culture; assay type: cell-based; settings: Klebsiella pneumoniae, ATCC13883, read-out: MIC K. pneumoniae (ATCC 13883)
Procedure: as §1, §2

[30] = test system: Acinetobacter baumannii (ATCCBAA-1605); assay: microbe, parasite or virus in culture; assay type: cell-based; settings: ATCCBAA1605, read-out: MIC Acinetobacter baumannii (ATCCBAA-1605)
Procedure: as §1, §2

[31] = test system: P. aeruginosa (ATCC 10145); assay: microbe, parasite or virus in culture; assay type: cell-based; settings: Pseudomonas aeruginosa, ATCC10145, read-out: MIC P. aeruginosa (ATCC 10145)
Procedure: as §1, §2

E. coli (ATCC BAA-2452) = assay: microbe, parasite or virus in culture; assay type: cell-based; settings: Escherichia coli, ATCCBAA2452, read-out: MIC E. coli (ATCC BAA-2452)
Procedure: as §1, §2

[32] = test system: K. pneumoniae (ATCC BAA-1705); assay: microbe, parasite or virus in culture; settings: Klebsiella pneumoniae, ATCCBAA1705, read-out: MIC K. pneumoniae (ATCC BAA-1705)
[33] = ATCCBAA1556, checkerboard, read-out: MIC antibiotic alone
[34] = ATCC25922, checkerboard, read-out: MIC antibiotic alone
[35] = ATCC27883, checkerboard, read-out: MIC antibiotic alone
[36] = read-out: MIC MRSA (ATCC BAA-1556)

C[S+](C)[O-] [DMSO (30%), DMSO]
cell viability (liver (HepaRG) cells): 7–11%
cell viability [1]: 7–11%
cell viability (kidney (HEK-293) cells): 7–11%
cell viability [2]: 7–11%

N=C(N)NCCC[C@H](N)C(=O)O [arginine]
pKa value of the arginine guanidinium group [3]: 13.8 ± 0.1

CO/N=C(\C(=O)N[C@@H]1C(=O)N2C(C(=O)[O-])=C(C[N+]3(C)CCCC3)CS[C@H]12)c1csc(N)n1 [cefepime]
MIC [4]: 1 µg/mL (≈ 2.08 µM)
MIC (S. aureus (ATCC 29213)): 2 µg/mL (≈ 4.16 µM)
MIC (P. aeruginosa (1188712)): 8 µg/mL (≈ 16.6 µM)
MIC (K. pneumoniae (1188718)): 8 µg/mL (≈ 16.6 µM)
MIC (S. aureus (1193193)): 16 µg/mL (≈ 33.3 µM)
MIC [5]: 1 µg/mL (≈ 2.08 µM)
MIC (E. coli (1191008)): 8 µg/mL (≈ 16.6 µM)
MIC (E. coli (ATCC 25922) [6]): 0.06 µg/mL (≈ 0.125 µM)

O=C(O)c1cn(C2CC2)c2cc(N3CCNCC3)c(F)cc2c1=O [ciprofloxacin]
MBC (MRSA (ATCC BAA-1556) [7]): 32 µg/mL (≈ 96.6 µM)
MIC E. coli (ATCC 25922) (E. coli (ATCC 25922) [8]): 64 µg/mL (≈ 193 µM)
MBC (E. coli (ATCC 25922) [9]): 16 µg/mL (≈ 48.3 µM)
MIC [10, 33]: 16 µg/mL
MBC [11]: 8 µg/mL (≈ 24.1 µM)
MBC [12]: 16 µg/mL (≈ 48.3 µM)
MIC S. aureus (ATCC BAA-1556) (MRSA (ATCC BAA-1556) [13]): 16 µg/mL (≈ 48.3 µM)

CCCCCCCCCC(=O)N[C@@H](Cc1c[nH]c2ccccc12)C(=O)N[C@H](CC(N)=O)C(=O)N[C@@H](CC(=O)O)C(=O)N[C@@H]1C(=O)NCC(=O)N[C@@H](CCCN)C(=O)N[C@@H](CC(=O)O)C(=O)N[C@H](C)C(=O)N[C@@H](CC(=O)O)C(=O)NCC(=O)N[C@H](CO)C(=O)N[C@@H]([C@H](C)CC(=O)O)C(=O)N[C@@H](CC(=O)c2ccccc2N)C(=O)O[C@@H]1C [daptomycin]
change in MIC on resistance induction [14]: negligible changes in the MICs
MBC (MRSA (ATCC BAA-1556) [7]): 8 µg/mL (≈ 4.94 µM)
MIC (E. coli (ATCC 25922) [15]; [34]): > 128 µg/mL
MIC E. coli (ATCC 25922) (E. coli (ATCC 25922) [8]): 256 µg/mL (≈ 158 µM)
MIC K. pneumoniae (ATCC BAA-1705) [16]: 512 µg/mL (≈ 316 µM)
MIC P. aeruginosa (ATCC 27883) [17]: 512 µg/mL (≈ 316 µM)
MIC (E. faecium (ATCC 27270)): 4 µg/mL (≈ 2.47 µM)
MIC (E. faecalis (ATCC 29212)): 16 µg/mL (≈ 9.87 µM)
MIC [18]: 0.5 µg/mL (≈ 0.309 µM)
MIC [19]: 8 µg/mL (≈ 4.94 µM)
MIC (E. faecalis (ATCC 51575)): 4 µg/mL (≈ 2.47 µM)
MIC [20]: 4 µg/mL (≈ 2.47 µM)
calcein dye release [21]: 42%
MIC [22, 35]: 512 µg/mL
MIC [23]: 512 µg/mL
calcein dye leakage [24]: around 7%

C[C@@H](O)[C@H]1C(=O)N2C(C(=O)O)=C(S[C@@H]3CN[C@H](C(=O)N(C)C)C3)[C@H](C)[C@H]12 [meropenem]
MBC (MRSA (ATCC BAA-1556) [7]): 8 µg/mL (≈ 20.9 µM)
MIC (E. coli (ATCC 25922) [15]; [34]): 1 µg/mL
MIC (E. coli (ATCC 25922) [25]): 1 µg/mL (≈ 2.61 µM)
MBC (E. coli (ATCC 25922) [9]): 2 µg/mL (≈ 5.22 µM)
MIC [10, 33]: 2 µg/mL
MBC [11]: 4 µg/mL (≈ 10.4 µM)
MIC [26]: 1 µg/mL (≈ 2.61 µM)
MIC [22, 35]: 1 µg/mL
MBC [12]: 64 µg/mL (≈ 167 µM)
MIC (MRSA (ATCC BAA-1556) [27]; [36]): 2 µg/mL (≈ 5.22 µM)
MIC (MRSA (ATCC BAA-1556) [27]; read-out: MIC S. aureus (ATCC BAA-1556)): 2 µg/mL (≈ 5.22 µM)

CC[C@H](C)CCCCC(=O)N[C@@H](CCN)C(=O)N[C@H](C(=O)N[C@@H](CCN)C(=O)N[C@H]1CCNC(=O)[C@H]([C@@H](C)O)NC(=O)[C@H](CCN)NC(=O)[C@H](CCN)NC(=O)[C@H](CC(C)C)NC(=O)[C@@H](Cc2ccccc2)NC(=O)[C@H](CCN)NC1=O)[C@@H](C)O [polymyxin B] (X1-[Dab]T[Dab][Dab][Dab][dF]L[Dab][Dab]T; lactam 4-C)
change in MIC on resistance induction [14]: negligible changes in the MICs
MIC (E. coli (ATCC 25922) [15]; ATCC25922, read-out: MIC antibiotic alone): 2 µg/mL
MIC (E. coli (ATCC 25922) [25]): 2 µg/mL (≈ 1.66 µM)
MBC (E. coli (ATCC 25922) [9]): 4 µg/mL (≈ 3.32 µM)
MIC ([10]; ATCCBAA1556, read-out: MIC antibiotic alone): 64 µg/mL
MIC [28]: 2 µg/mL (≈ 1.66 µM)
MIC [29]: 1 µg/mL (≈ 0.831 µM)
MIC [30]: 1 µg/mL (≈ 0.831 µM)
MIC [31]: 2 µg/mL (≈ 1.66 µM)
MIC (E. coli (ATCC BAA-2452)): 1 µg/mL (≈ 0.831 µM)
MIC [32]: 1 µg/mL (≈ 0.831 µM)
MBC [11]: 2 µg/mL (≈ 1.66 µM)
MIC [26]: 1 µg/mL (≈ 0.831 µM)
MIC ([22]; ATCC27883, read-out: MIC antibiotic alone): 1 µg/mL
MBC [12]: 2 µg/mL (≈ 1.66 µM)
MIC [23]: 1 µg/mL
MIC S. aureus (ATCC BAA-1556) (MRSA (ATCC BAA-1556) [13]): 64 µg/mL (≈ 53.2 µM)
MIC (MRSA (ATCC BAA-1556) [27]; [36]): 64 µg/mL (≈ 53.2 µM)

From publication PMC9743092, “Membrane-Active Cyclic Amphiphilic Peptides: Broad-Spectrum Antibacterial Activity Alone and in Combination with Antibiotics” (Journal of Medicinal Chemistry, 2022)
